The NIST ThermoML archive (doi:10.1016/j.fluid.2014.10.004)

Key:
[1] = 101.3 kPa, Liquid, Sing-around technique in a fixed-path interferometer
[2] = refractive index (Na D-line) (dimensionless); settings: 101.33 kPa, Liquid, Standard Abbe refractometry
[3] = xn = mol fraction of the nth substance listed; settings: 101.3 kPa, Liquid, Sing-around technique in a fixed-path interferometer
[4] = refractive index (Na D-line) (dimensionless); xn = mol fraction of the nth substance listed; settings: 101.3 kPa, Liquid, Standard Abbe refractometry

CC(Cl)(Cl)Cl [1,1,1-trichloroethane]
Settings	refractive index, 298.15 K	refractive index, 308.15 K	refractive index, 318.15 K	speed of sound, 298.15 K [m/s]	speed of sound, 308.15 K [m/s]	speed of sound, 318.15 K [m/s]
[1]	–	–	–	962.94	928.68	894.71
[2]	1.43492	1.42908	1.42311	–	–	–

ClC(Cl)C(Cl)Cl [1,1,2,2-tetrachloroethane]
Settings	refractive index, 298.15 K	refractive index, 308.15 K	refractive index, 318.15 K	speed of sound, 298.15 K [m/s]	speed of sound, 308.15 K [m/s]	speed of sound, 318.15 K [m/s]
[1]	–	–	–	1150.6	1118.7	1087
[2]	1.49174	1.48654	1.48137	–	–	–

ClCCCl [1,2-dichloroethane]
Settings	refractive index, 298.15 K	refractive index, 308.15 K	refractive index, 318.15 K	speed of sound, 298.15 K [m/s]	speed of sound, 308.15 K [m/s]	speed of sound, 318.15 K [m/s]
[1]	–	–	–	1194.4	1156.1	1117.8
[2]	1.44206	1.43661	1.43109	–	–	–

ClCCCCl [1,3-dichloropropane]
Settings	refractive index, 298.15 K	refractive index, 308.15 K	refractive index, 318.15 K	speed of sound, 298.15 K [m/s]	speed of sound, 308.15 K [m/s]	speed of sound, 318.15 K [m/s]
[1]	–	–	–	1236.5	1199.7	1163.2
[2]	1.44617	1.44123	1.43614	–	–	–

ClCCCCCl [1,4-dichlorobutane]
Settings	refractive index, 298.15 K	refractive index, 308.15 K	refractive index, 318.15 K	speed of sound, 298.15 K [m/s]	speed of sound, 308.15 K [m/s]	speed of sound, 318.15 K [m/s]
[1]	–	–	–	1286.6	1251	1215.7
[2]	1.45224	1.44756	1.44279	–	–	–

CCCCCl [1-chlorobutane]
Settings	refractive index, 298.15 K	refractive index, 308.15 K	refractive index, 318.15 K	speed of sound, 298.15 K [m/s]	speed of sound, 308.15 K [m/s]	speed of sound, 318.15 K [m/s]
[1]	–	–	–	1119	1078	1037.3
[2]	1.39953	1.39413	1.38851	–	–	–

CCCCCCl [1-chloropentane]
Settings	refractive index, 298.15 K	refractive index, 308.15 K	refractive index, 318.15 K	speed of sound, 298.15 K [m/s]	speed of sound, 308.15 K [m/s]	speed of sound, 318.15 K [m/s]
[1]	–	–	–	1164.2	1124.9	1085.8
[2]	1.41015	1.40501	1.39984	–	–	–

C[N+](=O)[O-] [nitromethane]
Settings	refractive index, 298.15 K	refractive index, 308.15 K	refractive index, 318.15 K	speed of sound, 298.15 K	speed of sound, 308.15 K	speed of sound, 318.15 K
[1]	–	–	–	1321.3 m/s [middle of 9 runs]	1281.9 m/s [middle of 7 runs]	1242.5 m/s [middle of 8 runs]
[2]	1.37951 [middle of 8 runs]	1.37473 [middle of 7 runs]	1.37001 [middle of 7 runs]	–	–	–

C[N+](=O)[O-] [nitromethane] + ClC(Cl)Cl
Settings	refractive index, 298.15 K	refractive index, 308.15 K	refractive index, 318.15 K	speed of sound, 298.15 K [m/s]	speed of sound, 308.15 K [m/s]	speed of sound, 318.15 K [m/s]
[3], x2 = 0	–	–	–	1321.3	1281.8	1242.4
[3], x2 = 0.1197	–	–	–	1253.7	1215.5	1177.5
[3], x2 = 0.1772	–	–	–	1225	1187.5	1150.1
[3], x2 = 0.3007	–	–	–	1171.2	1134.6	1098.1
[3], x2 = 0.4009	–	–	–	1133.6	1097.8	1062
[3], x2 = 0.5	–	–	–	1101.3	1065.9	1030.7
[3], x2 = 0.5978	–	–	–	1072.5	1037.7	1002.9
[3], x2 = 0.7194	–	–	–	1041.5	1007.1	972.74
[3], x2 = 0.8607	–	–	–	1010.4	976.31	942.3
[3], x2 = 0.9562	–	–	–	993.45	959.49	925.65
[4], x2 = 0	1.37951	1.37501	1.37016	–	–	–
[4], x2 = 0.1197	1.39001	1.38474	1.37896	–	–	–
[4], x2 = 0.1772	1.39474	1.38937	1.3835	–	–	–
[4], x2 = 0.3007	1.40415	1.39828	1.39227	–	–	–
[4], x2 = 0.4009	1.41107	1.40509	1.39897	–	–	–
[4], x2 = 0.5	1.41742	1.41126	1.40531	–	–	–
[4], x2 = 0.5978	1.42317	1.41698	1.41097	–	–	–
[4], x2 = 0.7194	1.42971	1.42362	1.41741	–	–	–
[4], x2 = 0.8607	1.4364	1.43035	1.42424	–	–	–
[4], x2 = 0.9562	1.44032	1.43408	1.42786	–	–	–

C[N+](=O)[O-] [nitromethane] + ClCCCCCl
x2 = 0
Settings	refractive index, 298.15 K	refractive index, 308.15 K	refractive index, 318.15 K	speed of sound, 298.15 K [m/s]	speed of sound, 308.15 K [m/s]	speed of sound, 318.15 K [m/s]
[3]	–	–	–	1321.5	1281.9	1242.5
[4]	1.37955	1.37482	1.37001	–	–	–

C[N+](=O)[O-] [nitromethane] + ClCCCCl
x2 = 0
Settings	refractive index, 298.15 K	refractive index, 308.15 K	refractive index, 318.15 K	speed of sound, 298.15 K [m/s]	speed of sound, 308.15 K [m/s]	speed of sound, 318.15 K [m/s]
[3]	–	–	–	1321.2	1281.8	1242.5
[4]	1.37948	1.3748	1.37007	–	–	–

C[N+](=O)[O-] [nitromethane] + ClCCCl
Settings	refractive index, 298.15 K	refractive index, 308.15 K	refractive index, 318.15 K	speed of sound, 298.15 K [m/s]	speed of sound, 308.15 K [m/s]	speed of sound, 318.15 K [m/s]
[3], x2 = 0	–	–	–	1321.2	1281.8	1242.5
[3], x2 = 0.0878	–	–	–	1298.2	1259	1220.1
[3], x2 = 0.1939	–	–	–	1279	1240.3	1201.6
[3], x2 = 0.2938	–	–	–	1264	1225.5	1187
[3], x2 = 0.3998	–	–	–	1246.1	1207.7	1169.4
[3], x2 = 0.5028	–	–	–	1236	1197.7	1159.5
[3], x2 = 0.6154	–	–	–	1229	1190.8	1152.5
[3], x2 = 0.7207	–	–	–	1218.7	1180.5	1142.2
[3], x2 = 0.8326	–	–	–	1207.6	1169.3	1131.1
[3], x2 = 0.9404	–	–	–	1201.6	1163.3	1125
[4], x2 = 0	1.37952	1.37482	1.37009	–	–	–
[4], x2 = 0.1132	1.38846	1.38351	1.37845	–	–	–
[4], x2 = 0.2235	1.39669	1.39148	1.38609	–	–	–
[4], x2 = 0.3249	1.40379	1.39839	1.39284	–	–	–
[4], x2 = 0.4672	1.41318	1.40777	1.40213	–	–	–
[4], x2 = 0.5586	1.4188	1.41343	1.40781	–	–	–
[4], x2 = 0.6264	1.42279	1.41742	1.41184	–	–	–
[4], x2 = 0.7349	1.42888	1.42345	1.41797	–	–	–
[4], x2 = 0.857	1.43522	1.42981	1.42424	–	–	–
[4], x2 = 0.923	1.43844	1.43304	1.42748	–	–	–

ClC(Cl)Cl [trichloromethane]
Settings	refractive index, 298.15 K	refractive index, 308.15 K	refractive index, 318.15 K	speed of sound, 298.15 K [m/s]	speed of sound, 308.15 K [m/s]	speed of sound, 318.15 K [m/s]
[1]	–	–	–	984.42	950.45	916.63
[2]	1.44209	1.43598	1.42986	–	–	–

ClC(Cl)Cl [trichloromethane] + C[N+](=O)[O-]
x1 = 1
Settings	refractive index, 298.15 K	refractive index, 308.15 K	refractive index, 318.15 K	speed of sound, 298.15 K [m/s]	speed of sound, 308.15 K [m/s]	speed of sound, 318.15 K [m/s]
[3]	–	–	–	984.42	950.45	916.63
[4]	1.44209	1.43598	1.42986	–	–	–
